Values belong to the compound of their own block, whether it stands above or below them.
Columns and labels:
[1] = molecular target: T1, neuronal voltage-gated, L-type (Cav1.3) α1D subunit Ca^2+ channel (Rattus norvegicus, UniProt P27732); test: KCl-induced Ca^2+ signaling in fura-2 loaded PC12 cells; type: cell-based; details: for block of KCl-induced Ca^2+ signaling: PC12 cells in culture, n=3/group, FIG. 3; for activity on neuronal L-type Ca^2+ channels compared with all-trans farnesol: non-NGF PC12 cells, fura-2, FIG. 1 / FIG. 3
T1 construct: KCl-induced intracellular Ca^2+ signaling in non-NGF treated PC12 cells loaded with fura-2; endogenous in cells; host or cells: PC12 cells (non-NGF treated)
Source text: According to particular aspects of the present invention, the alcohol group is essential for activity. Additionally, the activity of farnesol metabolites on neuronal voltage-gated L-type Ca^2+ channels was investigated. […] The Ca^2+ channel activity is expressed as % inhibition of KCl-induced intracellular Ca^2+ signaling in non-NGF differentiated PC12 cells loaded with fura-2 (see Materials and Methods under Example 2). The assayed molecules are: FPP—farnesyl pyrophosphate; FOH—all-trans farnesol; FCHO—all-trans farnesal; and FCOOH—all-trans farnesoic acid (prepared by Dr. McDougal).
(§1) To identify compounds with enhanced L-type Ca^2+ channel blocker activity, several compounds were either purchased or synthesized, and then tested for their ability to inhibit: (1) KCl-induced contraction in isolated arteries; (2) KCl-induced Ca^2+ signaling in fura-2 loaded arteries; and (3) KCl-induced Ca^2+ signaling in fura-2 loaded PC12 cells, all using art-recognized methods established in the applicants' laboratories (Roullet, 1993, 1994, 1995, 1997; De Lima, 1999). Arteries express smooth muscle voltage-gated, L-type (Cav1.2 or α1C subunit) Ca^2+ channels, whereas PC12 cells constitutively express the neuronal voltage-gated, L-type (Cav1.3) α1D subunit (Ertel, 2000).
Ca^2+ channel activity is expressed as % inhibition of KCl-induced intracellular Ca^2+ signaling in non-NGF treated PC12 cells loaded with fura-2.

[2] = system: ADH; test: Metabolism / substrate recognition by ADH; type: in vitro ADME
[3] = system: microsomal FolDH; test: Recognition by microsomal FolDH; type: in vitro ADME
[4] = system: withdrawal seizures in alcohol-dependent mice; test: Predicted anti-seizure activity; type: in vivo, mouse; design: key: la = long-acting; The ++ farnesol activity was arbitrary; details: for Predicted anti-seizure activity: long-acting (la): duration flag in brackets
[5] = system: WSP1 mice; test: Acute ethanol withdrawal HIC scoring in WSP1 mice; type: in vivo, mouse
Protocol: experiments were conducted in two mouse strains: […], 1994; Crabbe & […], in preparation), but are sometimes preferred to the WSP1 mice for the screening of anti-AWS drugs, because of their lower basal level of convulsions (in the absence of alcohol). […] Immediately after the hour-7 time point HIC score (a time of maximal withdrawal in this strain), animals were injected with either 200 mg/kg farnesol (suspension in saline containing 3 g/l bovine serum albumin) or vehicle, and scored 8, 16, 24, 32, 40, 48 and 56 minutes later using a scale from 0 to 7 (Crabbe, 1991; scoring scale shown in TABLE 1). The time course was then resumed (animals were scored at hour 8, etc.).

[6] = system: DBA/2J mice; type: in vivo, mouse
Protocol: experiments were conducted in two mouse strains: Withdrawal Seizure Prone replicate 1 (WSP1); and DBA/2J. WSP1 mice have been selectively bred for their high sensitivity to ethanol and enhanced expression of alcohol withdrawal seizures (Kosobud, 1995; Metten, 1996). DBA/J2 mice also have pronounced alcohol withdrawal symptoms following either chronic treatment or a single injection of a hypnotic dose of alcohol (Crabbe, 1983; Metten, 1994; Crabbe & Metten, in preparation), but are sometimes preferred to the WSP1 mice for the screening of anti-AWS drugs, because of their lower basal level of convulsions (in the absence of alcohol).
DBA/2J mice (males and females; mean BW=23 g; n=44) were injected intra peritoneally (i.p.) with a loading dose of 1.5 g/kg ethanol (20% v/v saline solution) and with 68.1 mg/kg pyrazole hydrochloride, and then placed for 72 h into inhalation chambers (3-4 animals/cage) set at 5 mg ethanol/L air (Guppy, 1995; Crabbe, 1998). The animals were removed from the chambers after 24 and 48 h, and re-injected with pyrazole. The pyrazole injections are necessary to reduce mortality and heterogeneity in withdrawal reactions (Goldstein, 1972). A second group of animals matched for BW and sex (n=32), were housed under normal (‘air-breathing’) conditions and served as pyrazole-injected controls. All animals had free access to food and water and were housed with a 12 hr day-night light cycle. Upon withdrawal from the chambers (t=0), body weight was determined and a tail blood sample was collected for the determination of blood alcohol concentration (BEC, alcohol-treated animals only; Crabbe, 1998). […] Injections were made either 3 hours (GROUP A) or 6 hours (GROUP B) after withdrawal (approximately half of the animals were used in each group). These time points were chosen to precede peak withdrawal (GROUP A at 3 hours) as it begins to ascend above control levels to determine whether farnesol would prevent withdrawal, and to treat withdrawal at its peak (GROUP B at 6 hours). HICs were scored hourly until injections (0 to 3 h for GROUP A and 0 to 6 h for GROUP B). Immediately after HIC scoring at the hour-3 or hour-6 time points, the animals were injected with farnesol or vehicle, and scored 10, 20, 30 and 40 minutes later. The hourly scoring was then resumed at either 4 hours or 7 hours, and continued to the 10-hour time point.

[7] = molecular target: T1, neuronal voltage-gated, L-type (Cav1.3) α1D subunit Ca^2+ channel; details: PC12 cells; cited from earlier work
[8] = molecular target: T2, voltage-gated L-type Ca^2+ channels (Homo sapiens, UniProt Q13936); details: cited from earlier work
T2 construct: host or cells: arteries / vascular smooth muscle cells
T2 sequence (Q13936 whole entry): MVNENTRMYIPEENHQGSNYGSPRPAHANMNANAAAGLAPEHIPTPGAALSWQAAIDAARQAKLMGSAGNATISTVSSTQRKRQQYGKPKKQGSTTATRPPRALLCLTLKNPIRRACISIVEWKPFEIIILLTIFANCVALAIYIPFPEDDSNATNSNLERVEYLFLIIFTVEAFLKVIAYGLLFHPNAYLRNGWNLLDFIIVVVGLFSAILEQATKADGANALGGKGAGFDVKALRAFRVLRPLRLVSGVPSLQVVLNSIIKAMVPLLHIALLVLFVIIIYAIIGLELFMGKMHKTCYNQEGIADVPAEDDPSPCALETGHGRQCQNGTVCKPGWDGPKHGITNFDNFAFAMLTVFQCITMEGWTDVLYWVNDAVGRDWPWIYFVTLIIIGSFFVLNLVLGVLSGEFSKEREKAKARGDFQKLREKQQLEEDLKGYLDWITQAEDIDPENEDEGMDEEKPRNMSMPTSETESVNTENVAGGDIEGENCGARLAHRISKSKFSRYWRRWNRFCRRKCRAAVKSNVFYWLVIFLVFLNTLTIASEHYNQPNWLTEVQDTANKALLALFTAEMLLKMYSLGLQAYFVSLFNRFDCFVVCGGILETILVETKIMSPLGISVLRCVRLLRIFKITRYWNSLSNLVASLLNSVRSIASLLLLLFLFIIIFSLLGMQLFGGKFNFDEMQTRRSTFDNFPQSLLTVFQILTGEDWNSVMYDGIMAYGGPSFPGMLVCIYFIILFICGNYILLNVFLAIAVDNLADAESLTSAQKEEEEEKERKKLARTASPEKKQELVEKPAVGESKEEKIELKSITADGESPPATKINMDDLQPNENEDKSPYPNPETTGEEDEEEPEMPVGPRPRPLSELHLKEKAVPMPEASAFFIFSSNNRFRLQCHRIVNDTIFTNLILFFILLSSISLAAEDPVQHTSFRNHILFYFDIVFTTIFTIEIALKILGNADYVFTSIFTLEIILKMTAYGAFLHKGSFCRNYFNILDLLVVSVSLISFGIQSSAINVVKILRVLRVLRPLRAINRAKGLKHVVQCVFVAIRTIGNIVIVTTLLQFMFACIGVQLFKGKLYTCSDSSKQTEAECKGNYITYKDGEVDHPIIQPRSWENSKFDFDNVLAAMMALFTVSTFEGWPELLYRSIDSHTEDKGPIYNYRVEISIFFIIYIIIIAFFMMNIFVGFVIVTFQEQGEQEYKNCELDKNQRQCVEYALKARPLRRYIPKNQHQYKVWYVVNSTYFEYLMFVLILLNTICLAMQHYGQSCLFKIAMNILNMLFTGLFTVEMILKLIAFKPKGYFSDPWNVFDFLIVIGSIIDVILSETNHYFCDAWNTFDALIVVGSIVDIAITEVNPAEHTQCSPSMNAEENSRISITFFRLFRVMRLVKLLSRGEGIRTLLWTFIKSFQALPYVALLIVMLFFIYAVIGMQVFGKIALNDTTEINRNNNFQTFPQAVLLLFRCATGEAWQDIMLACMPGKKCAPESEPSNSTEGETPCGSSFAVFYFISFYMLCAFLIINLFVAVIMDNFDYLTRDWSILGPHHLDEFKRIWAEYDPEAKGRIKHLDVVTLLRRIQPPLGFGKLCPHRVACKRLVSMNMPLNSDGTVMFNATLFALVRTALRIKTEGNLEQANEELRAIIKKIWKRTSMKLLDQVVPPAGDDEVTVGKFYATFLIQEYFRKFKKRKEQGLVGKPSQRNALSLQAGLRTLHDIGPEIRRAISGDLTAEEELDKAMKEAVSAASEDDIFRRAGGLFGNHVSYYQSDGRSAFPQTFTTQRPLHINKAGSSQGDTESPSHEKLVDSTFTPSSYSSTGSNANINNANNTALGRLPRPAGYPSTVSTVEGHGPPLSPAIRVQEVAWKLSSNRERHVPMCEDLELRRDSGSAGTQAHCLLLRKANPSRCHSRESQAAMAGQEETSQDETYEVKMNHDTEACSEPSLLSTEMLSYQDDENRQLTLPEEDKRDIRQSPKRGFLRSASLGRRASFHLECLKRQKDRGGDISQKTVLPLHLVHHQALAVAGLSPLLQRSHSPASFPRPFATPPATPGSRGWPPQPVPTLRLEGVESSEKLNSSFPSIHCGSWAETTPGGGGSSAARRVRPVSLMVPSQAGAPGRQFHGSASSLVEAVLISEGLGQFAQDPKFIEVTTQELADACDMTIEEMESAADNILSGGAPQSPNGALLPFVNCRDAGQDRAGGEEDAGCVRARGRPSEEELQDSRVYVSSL
T2 sequence (P54284 whole entry partner): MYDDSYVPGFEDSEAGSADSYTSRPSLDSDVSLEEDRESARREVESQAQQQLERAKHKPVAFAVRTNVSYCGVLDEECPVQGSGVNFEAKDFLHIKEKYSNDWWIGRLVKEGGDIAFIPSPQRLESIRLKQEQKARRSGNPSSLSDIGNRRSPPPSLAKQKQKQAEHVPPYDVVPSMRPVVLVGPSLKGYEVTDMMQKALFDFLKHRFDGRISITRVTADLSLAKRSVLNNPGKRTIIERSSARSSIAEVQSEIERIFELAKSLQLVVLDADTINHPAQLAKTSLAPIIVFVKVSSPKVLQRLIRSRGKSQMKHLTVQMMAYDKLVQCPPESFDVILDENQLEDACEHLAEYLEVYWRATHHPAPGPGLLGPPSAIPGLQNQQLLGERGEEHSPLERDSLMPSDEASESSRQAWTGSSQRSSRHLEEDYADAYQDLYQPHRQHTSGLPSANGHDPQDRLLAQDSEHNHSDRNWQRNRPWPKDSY
T2 sequence (P54289 25-956 partner limits assumed): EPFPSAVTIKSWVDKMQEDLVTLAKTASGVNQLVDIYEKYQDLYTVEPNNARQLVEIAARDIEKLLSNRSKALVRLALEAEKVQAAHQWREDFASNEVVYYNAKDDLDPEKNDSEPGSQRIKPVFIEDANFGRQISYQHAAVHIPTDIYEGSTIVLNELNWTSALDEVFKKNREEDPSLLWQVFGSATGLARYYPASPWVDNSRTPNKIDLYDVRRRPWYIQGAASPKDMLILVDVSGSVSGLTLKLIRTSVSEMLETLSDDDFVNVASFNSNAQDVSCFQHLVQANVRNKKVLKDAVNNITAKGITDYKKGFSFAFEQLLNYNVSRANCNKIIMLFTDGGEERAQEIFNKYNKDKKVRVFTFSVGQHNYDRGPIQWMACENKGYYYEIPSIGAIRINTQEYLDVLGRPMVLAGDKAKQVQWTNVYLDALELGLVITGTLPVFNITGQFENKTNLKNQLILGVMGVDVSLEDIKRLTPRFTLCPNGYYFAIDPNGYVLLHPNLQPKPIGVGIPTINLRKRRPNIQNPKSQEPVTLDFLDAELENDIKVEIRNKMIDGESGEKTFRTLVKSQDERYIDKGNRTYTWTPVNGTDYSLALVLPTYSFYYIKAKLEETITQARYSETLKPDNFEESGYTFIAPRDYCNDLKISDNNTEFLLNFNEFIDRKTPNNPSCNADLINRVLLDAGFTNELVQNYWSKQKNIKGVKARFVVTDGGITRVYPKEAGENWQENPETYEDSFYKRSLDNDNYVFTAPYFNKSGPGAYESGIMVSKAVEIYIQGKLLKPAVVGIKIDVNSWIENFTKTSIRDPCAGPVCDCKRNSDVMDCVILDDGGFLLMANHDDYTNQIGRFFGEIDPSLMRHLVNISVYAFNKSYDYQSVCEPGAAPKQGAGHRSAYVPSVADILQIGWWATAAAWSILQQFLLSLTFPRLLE
T2 sequence (P54289 957-1103 partner limits assumed): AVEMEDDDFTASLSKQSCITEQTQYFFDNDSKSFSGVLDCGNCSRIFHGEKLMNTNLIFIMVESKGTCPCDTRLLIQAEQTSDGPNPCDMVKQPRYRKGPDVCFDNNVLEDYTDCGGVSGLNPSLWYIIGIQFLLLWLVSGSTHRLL

[9] = molecular target: T3, N-type Ca^2+ channel (α1B) (Homo sapiens, UniProt Q00975); details: cited from earlier work
T3 construct: host or cells: HEK cells

[10] = molecular target: T4, P/Q-type Ca^2+ channels (α1A) (Homo sapiens, UniProt O00555); details: micromolar concentration; cited from earlier work
T4 construct: host or cells: HEK cells

[11] = molecular target: T5, R-type Ca^2+ channels (α1E) (Homo sapiens, UniProt Q15878); details: micromolar concentration; cited from earlier work
T5 construct: host or cells: HEK cells

[12] = molecular target: T6, cardiac L-type Ca^2+ channels (α1C) (Homo sapiens, UniProt Q13936); details: micromolar concentration; cited from earlier work
T6 construct: host or cells: HEK cells
T6 sequence (Q13936 whole entry, species assumed): as the sequence (Q13936 whole entry) above
T6 sequence (Q02641 whole entry partner, species assumed): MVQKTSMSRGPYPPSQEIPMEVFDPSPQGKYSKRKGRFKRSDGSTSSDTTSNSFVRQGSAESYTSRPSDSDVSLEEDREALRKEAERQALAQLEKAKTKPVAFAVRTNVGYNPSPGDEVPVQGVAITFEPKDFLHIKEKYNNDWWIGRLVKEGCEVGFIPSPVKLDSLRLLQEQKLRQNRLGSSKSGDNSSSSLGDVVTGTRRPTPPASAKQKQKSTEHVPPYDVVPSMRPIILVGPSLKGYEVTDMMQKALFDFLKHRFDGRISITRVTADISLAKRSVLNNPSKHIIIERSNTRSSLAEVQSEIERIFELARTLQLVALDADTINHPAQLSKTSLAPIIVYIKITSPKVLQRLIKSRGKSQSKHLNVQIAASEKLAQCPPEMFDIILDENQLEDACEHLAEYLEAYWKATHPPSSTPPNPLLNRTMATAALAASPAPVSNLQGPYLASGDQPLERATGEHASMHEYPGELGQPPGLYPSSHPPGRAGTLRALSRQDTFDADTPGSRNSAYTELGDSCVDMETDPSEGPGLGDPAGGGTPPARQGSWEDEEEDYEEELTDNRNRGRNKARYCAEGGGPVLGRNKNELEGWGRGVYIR
T6 sequence (P54289 25-956 partner limits assumed, species assumed): as the sequence (P54289 25-956 partner limits assumed) above
T6 sequence (P54289 957-1103 partner limits assumed, species assumed): as the sequence (P54289 957-1103 partner limits assumed) above

[13] = system: pentylenetetrazole-induced seizures; details: in vivo; cited from earlier work
[14] = molecular target: T7, smooth muscle voltage-gated, L-type (Cav1.2 or α1C subunit) Ca^2+ channels (Mus musculus, UniProt Q01815); test: KCl-induced contraction in isolated arteries; details: FIG. 5 / FIG. 6 (25 μM)
T7 construct: KCl-induced contraction in isolated arteries; from tissue; host or cells: mouse mesenteric arteries
Protocol: Contractions obtained after 30 min. incubation with the test compounds (left portion of graph), and after a 60-min. wash-out (right portion of graph).
as §1

- block of KCl-induced Ca^2+ signaling [1]: ~85%
- substrate for ADH [2]: not a substrate for ADH
- recognition by microsomal FolDH [3]: not recognized by microsomal FolDH
SMILES: C=CC(C)(O)CCC=C(C)CCC=C(C)C (mixture of isomers) [Nerolidol, (E)-3,7,11-trimethyldodeca-1,6,10-trien-3-ol]
- Predicted anti-seizure activity: long-acting (la) [4]: la

SMILES: CC(C)=CCC/C(C)=C/CC/C(C)=C/CO [All-trans farnesol, (2E,6E)-3,7,11-trimethyldodeca-2,6,10-trien-1-ol]
- block of KCl-induced Ca^2+ signaling [1]: 65%
- Predicted anti-seizure activity ([4]; based on effect on L-type Ca^2+ channels, CLogP and reversibility or ADH-FolDH recognition): ++
- reduction in peak ethanol withdrawal ([5]; 200 mg/kg): ~56%
- peak withdrawal effect (HIC score) ([5]; 200 mg/kg after hour 7, average of 24, 32 and 40 minute scores, scale 0 to 7): 2.67±0.29
- time point of maximum effect ([5]; 200 mg/kg, after injection at hour 7): 32 min
- effect on basal HICs in naïve WSP1 mice ([5]; 200 mg/kg, preliminary experiments): tended to reduce basal HICs
- Percent seizure reduction, GROUP A ([6]; 300 mg/kg i.p., injected 3 hours after withdrawal): 99%
- Percent seizure reduction, GROUP B ([6]; 300 mg/kg i.p., injected 6 hours after withdrawal): 78%
- effect on HIC scores in ‘air-breathing’ animals ([6]; 300 mg/kg i.p., pyrazole-injected controls): no significant effect
- effect on HICs in withdrawing animals, 50 mg/kg ([6]; at 50 mg/kg, worded "Preferably"): no effect
- effect on HICs in withdrawing animals, 300 mg/kg ([6]; dose of 300 mg/kg): suppresses almost completely
- death after injections ([6]; mouse, in vivo): No death
- duration of the farnesol effect ([6]; mouse, in vivo): approximately 1 hour
- toxicity of the dose inducing complete seizure suppression ([6]; mouse, in vivo): non toxic
- activity on neuronal L-type Ca^2+ channels (literature / prior studies) [7]: inhibits
- IC50 ([8]; reversible and dose-dependent, read-out: IC50, effect on arteries): ~2000 nM
- block of the N-type channel ([9]; at 250 nM farnesol, typical neuronal resting membrane potential): ~50%
- activity on N-type Ca^2+ channels ([9]; micromolar concentration): inhibits
- activity on P/Q-type Ca^2+ channels [10]: inactive
- activity on R-type Ca^2+ channels [11]: inactive
- activity on cardiac L-type Ca^2+ channels [12]: inhibits
- prevention of pentylenetetrazole-induced seizures [13]: not prevent

- activity on neuronal L-type Ca^2+ channels compared with all-trans farnesol [1]: significantly less activity than FOH
SMILES: CC(C)=CCCC(C)=CCCC(C)=CC=O [FCHO, all-trans farnesal, reference compound]

SMILES: CC(C)=CCCC(C)=CCCC(C)=CCBr [Farnesyl bromide]
- activity on KCl-induced arterial contraction [14]: did not showed significant activity

SMILES: CC(C)=CCC/C(C)=C/CC/C(=C\CO)C(F)(F)F [Trifluorofarnesol, (2E,6E)-,7,11-dimethyl-3-(trifluoromethyl)dodeca-2,6,10-trien-1-ol]
- Predicted anti-seizure activity: long-acting (la) [4]: la

SMILES: CC(C)=CCC/C(C)=C/CC/C(C)=C/C(=O)O [farnesoic acid, all-trans farnesoic acid, reference compound]
- activity on neuronal L-type Ca^2+ channels compared with all-trans farnesol [1]: substantially inactive

SMILES: CC(=O)OCC=C(C)CCC=C(C)CCC=C(C)C [farnesyl acetate]
- activity on KCl-induced arterial contraction [14]: did not showed significant activity

SMILES: COCC=C(C)CCC=C(C)CCC=C(C)C [farnesyl methyl ether]
- activity on KCl-induced arterial contraction [14]: did not showed significant activity

SMILES: CC(C)=CCC/C(C)=C/CC/C(C)=C/COP(=O)(O)OP(=O)(O)O [farnesyl-PP, farnesyl pyrophosphate, reference compound]
- activity on neuronal L-type Ca^2+ channels compared with all-trans farnesol [1]: substantially inactive

SMILES: CC(=O)CCC=C(C)CCC=C(C)CCC=C(C)C [farnesylacetone]
- activity on KCl-induced arterial contraction [14]: did not showed significant activity

SMILES: CC(C)=CCC/C(C)=C/CO [geraniol, reference compound]
- activity on Ca^2+ channels / smooth muscle L-type channels (literature / prior studies) [8]: inactive

SMILES: CC(C)=CCC/C(C)=C/CC/C(C)=C/CC/C(C)=C/CO [geranylgeraniol, reference compound]
- activity on Ca^2+ channels / smooth muscle L-type channels (literature / prior studies) [8]: inactive

- activity on neuronal L-type Ca^2+ channels compared with all-trans farnesol [1]: significantly more active
- catalytic efficiency of ADH, lower than toward all-trans farnesol [2]: approximately 10 fold
SMILES: CC(C)=CCC/C(C)=C/CC/C(C)=C\CO [“Cis” farnesol, (2Z,6E)-3,7,11-trimethyldodeca-2,6,10-trien-1-ol]
- activity on KCl-induced arterial contraction [14]: significantly more active

Reference: patent US10201510B2, “Compositions and methods for treatment of neurological symptoms associated with alcohol-withdrawal and for convulsive seizure” (Oregon Health & Science University, priority 2005, dated 2019)
